These results are taken from ChEMBL document CHEMBL1151278, “Hygrocins a and B, naphthoquinone macrolides from Streptomyces hygroscopicus” (2005).

SMILES strings stand for the structures. Values after ≈ are worked out from the molar mass of the structure shown.

Holding throughout (type): functional
The subject of test [1] is Staphylococcus aureus. Put plainly: Antibacterial activity against Staphylococcus aureus 2999 by NCCLS M27A method.
The subject of test [2] is Streptococcus pneumoniae. The test can be described thus: Antibacterial activity against Streptococcus pneumoniae by NCCLS M27A method.
For test [3], the system named is Enterococcus faecalis. Put plainly: Antibacterial activity against Streptococcus faecalis 1362/3 by NCCLS M27A method.
For test [4], the system named is Haemophilus influenzae. The test can be described thus: Antibacterial activity against Haemophilus influenzae by NCCLS M27A method.
Test [5] deals with Neisseria gonorrhoeae. The test can be described thus: Antibacterial activity against Neisseria gonorrhoeae by NCCLS M27A method.
In test [6] the test system is Escherichia coli. The test can be described thus: Antibacterial activity against Escherichia coli 1074 by NCCLS M27A method.
The next test relates to Candida albicans. Put plainly: Antifungal activity against Candida albicans by NCCLS M27A method.
The test system of the next test is Aspergillus fumigatus. Put plainly: Antifungal activity against Aspergillus fumigatus by NCCLS M27A method.
The next test deals with Aspergillus niger. The test can be described thus: Antifungal activity against Aspergillus niger by NCCLS M27A method.
Test [7] concerns Staphylococcus aureus. The test can be described thus: Antibacterial activity against Staphylococcus aureus 2999.
For test [8], the system named is Streptococcus pneumoniae. Put plainly: Antibacterial activity against Streptococcus pneumoniae.
Test [9] concerns Enterococcus faecalis. The test can be described thus: Antibacterial activity against Streptococcus faecalis 1362/3.
Test [10] relates to Haemophilus influenzae. Put plainly: Antibacterial activity against Haemophilus influenzae.
The test system of test [11] is Neisseria gonorrhoeae. Put plainly: Antibacterial activity against Neisseria gonorrhoeae.
Test [12] has as its system Escherichia coli. Put plainly: Antibacterial activity against Escherichia coli 1074.

Regarding `CCC1/C=C/[C@H](O)[C@H](C)OC(=O)/C(C)=C\CC(=O)NC2=CC(=O)c3c(cc(C)c(O)c3C(=O)CC1)C2=O` (some centres undefined) [HYGROCIN A], the MIC against Staphylococcus aureus [1] was 128 mg/L (≈ 251 µM); against Streptococcus pneumoniae [2], 16 mg/L (≈ 31.4 µM); against Enterococcus faecalis [3], 128 mg/L (≈ 251 µM); against Haemophilus influenzae [4], 128 mg/L (≈ 251 µM); in the test on Neisseria gonorrhoeae [5] it was 64 mg/L (≈ 126 µM); in the test with Escherichia coli [6] it was 128 mg/L (≈ 251 µM). In addition, the results for the MIC with Candida albicans, against Aspergillus fumigatus and against Aspergillus niger were 128 mg/L (≈ 251 µM), 16 mg/L (≈ 31.4 µM) and 32 mg/L (≈ 62.8 µM), respectively.

Consider `CCC1/C=C/[C@H](O)[C@H](C)OC(=O)[C@@]2(C)C=CC(=O)NC3=C2C(=O)c2c(cc(C)c(O)c2C(=O)CC1)C3=O` (some centres undefined) [HYGROCIN B], for which the MIC with Staphylococcus aureus [1], with Streptococcus pneumoniae [2], against Enterococcus faecalis [3], against Haemophilus influenzae [4], in the test with Neisseria gonorrhoeae [5] and in the test on Escherichia coli [6] was 128 mg/L (≈ 252 µM) in each case. The MIC came to 128 mg/L (≈ 252 µM) in the test with Candida albicans, 32 mg/L (≈ 63 µM) in the test on Aspergillus fumigatus and 64 mg/L (≈ 126 µM) in the test on Aspergillus niger.

In the case of `CO[C@H]1/C=C/O[C@@]2(C)Oc3c(C)c(O)c4c(c3C2=O)C(=O)C=C(NC(=O)/C(C)=C\C=C\[C@H](C)[C@H](O)[C@@H](C)[C@@H](O)[C@@H](C)[C@H](OC(C)=O)[C@@H]1C)C4=O` [RIFAMYCIN S], the MIC against Staphylococcus aureus [7] was 0.01 mg/L (≈ 0.0144 µM); in the test on Streptococcus pneumoniae [8], 0.1 mg/L (≈ 0.144 µM); in the test with Enterococcus faecalis [9], 16 mg/L (≈ 23 µM); in the test on Haemophilus influenzae [10], 0.01 mg/L (≈ 0.0144 µM); in the test on Neisseria gonorrhoeae [11], 0.1 mg/L (≈ 0.144 µM); with Escherichia coli [12], 128 mg/L (≈ 184 µM).
